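Assay format: 96-well plates, 48-hour exposure. Here, GI50 denotes the concentration required for 50% inhibition of growth.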 The source made the active and inactive calls. No stated cut-off is given here; in the data, active = GI50 up to about 1.1 µM and inactive = higher.
Key:
Experiment in all cases: growth of human tumour cells (NCI), 48 h
[1] = system: SK-MEL-2
[2] = system: SF-295
[3] = system: SR
[4] = system: NCI-H522
[5] = system: CAKI-1
[6] = system: OVCAR-3
[7] = system: SK-MEL-28
[8] = system: EKVX
[9] = system: Hs-578T
[10] = system: HL-60
[11] = system: NCI-H460
[12] = system: HCT-15
[13] = system: A549
[14] = system: OVCAR-4
[15] = system: 786-0
[16] = system: DU-145
[17] = system: PC-3
[18] = system: MOLT-4
[19] = system: RPMI-8226
[20] = system: HOP-92

SMILES | GI50 [1] | GI50 [2] | GI50 [3] | GI50 [4] | GI50 [5] | GI50 [6] | GI50 [7] | GI50 [8] | GI50 [9] | GI50 [10] | GI50 [11] | GI50 [12] [µM] | GI50 [13] | GI50 [14] | GI50 [15] | GI50 [16] | GI50 [17] | GI50 [18] | GI50 [19] | GI50 [20]
COc1cc2nc(-c3cccs3)nc(Cl)c2cc1OC | > 100 µM (inactive) | > 100 µM (inactive) | 0.339 µM (active) | > 100 µM (inactive) | 80.2 µM (inactive) | 93.3 µM (inactive) | > 100 µM (inactive) | 18.6 µM (inactive) | > 100 µM (inactive) | > 100 µM (inactive) | > 100 µM (inactive) | > 100 | > 100 µM (inactive) | 52.5 µM (inactive) | > 100 µM (inactive) | > 100 µM (inactive) | > 100 µM (inactive) | – | – | –
Cc1nc(N)c(N2CCN(C#N)CC2)c(O)n1 | > 100 µM (inactive) | > 100 µM (inactive) | > 100 µM (inactive) | > 100 µM (inactive) | – | 28.8 µM (inactive) | > 100 µM (inactive) | > 100 µM (inactive) | > 100 µM (inactive) | > 10 µM (inactive) | > 100 µM (inactive) | > 100 | > 100 µM (inactive) | – | > 100 µM (inactive) | > 100 µM (inactive) | > 100 µM (inactive) | > 100 µM (inactive) | > 100 µM (inactive) | –
O=C1/C(=C/c2ccc([N+](=O)[O-])cc2)C(=O)N(c2ccccc2)C1c1ccccc1 (centres undefined) | > 10 µM (inactive) | > 10 µM (inactive) | > 10 µM (inactive) | > 10 µM (inactive) | > 10 µM (inactive) | > 10 µM (inactive) | > 10 µM (inactive) | > 10 µM (inactive) | > 10 µM (inactive) | > 10 µM (inactive) | > 10 µM (inactive) | > 10 | > 10 µM (inactive) | > 10 µM (inactive) | > 10 µM (inactive) | > 10 µM (inactive) | > 10 µM (inactive) | > 10 µM (inactive) | > 10 µM (inactive) | –
CC(C)(C)C(=O)C(CC(=O)c1ccccc1)C(=O)C(C)(C)C | > 100 µM (inactive) | > 100 µM (inactive) | – | > 100 µM (inactive) | > 100 µM (inactive) | > 100 µM (inactive) | > 100 µM (inactive) | > 100 µM (inactive) | 77.3 µM (inactive) | > 100 µM (inactive) | > 100 µM (inactive) | > 100 | > 100 µM (inactive) | > 100 µM (inactive) | > 100 µM (inactive) | > 100 µM (inactive) | > 100 µM (inactive) | > 100 µM (inactive) | > 100 µM (inactive) | 44.7 µM (inactive)
CC(=O)N1c2ccccc2C2=NN=C(N(C)C)SC21 (centres undefined) | 2.18 µM (inactive) | 2.41 µM (inactive) | 3.28 µM (inactive) | 2.3 µM (inactive) | – | 3.05 µM (inactive) | 3.47 µM (inactive) | 2.75 µM (inactive) | 13.5 µM (inactive) | 2.14 µM (inactive) | 2.46 µM (inactive) | 0.838 | 2.89 µM (inactive) | 10.4 µM (inactive) | 2.48 µM (inactive) | 1.58 µM (inactive) | 2.84 µM (inactive) | 3.09 µM (inactive) | 5.96 µM (inactive) | –
N#CC(C#N)=C1C(=O)NC(N)=C1C#N | > 100 µM (inactive) | > 100 µM (inactive) | – | > 100 µM (inactive) | > 100 µM (inactive) | – | > 100 µM (inactive) | > 100 µM (inactive) | > 100 µM (inactive) | > 100 µM (inactive) | > 100 µM (inactive) | > 100 | > 100 µM (inactive) | > 100 µM (inactive) | > 100 µM (inactive) | > 100 µM (inactive) | > 100 µM (inactive) | > 100 µM (inactive) | > 100 µM (inactive) | > 100 µM (inactive)
O/N=C(/C(Cl)=C(Cl)Cl)C(Cl)Cl | – | 19.2 µM (inactive) | 10.8 µM (inactive) | – | 33.6 µM (inactive) | 19.6 µM (inactive) | 15.2 µM (inactive) | 42.5 µM (inactive) | 19.1 µM (inactive) | 8.28 µM (inactive) | 37.2 µM (inactive) | 17.2 | > 100 µM (inactive) | 16.7 µM (inactive) | 18.7 µM (inactive) | 29.6 µM (inactive) | 17.3 µM (inactive) | 15.9 µM (inactive) | 14.2 µM (inactive) | –
COc1cc(CNc2nc3cc(C(F)(F)F)ccc3nc2C(=O)O)cc(OC)c1OC | 19.9 µM (inactive) | 20.5 µM (inactive) | 33.3 µM (inactive) | 29.2 µM (inactive) | 25.3 µM (inactive) | 24.3 µM (inactive) | 22.5 µM (inactive) | 20.1 µM (inactive) | 10.4 µM (inactive) | 0.1 µM (active) | 25.4 µM (inactive) | 29.6 | 21.4 µM (inactive) | – | 19.3 µM (inactive) | 33.2 µM (inactive) | 21.5 µM (inactive) | 20.7 µM (inactive) | – | –
O=C(C/N=C(\CN(c1ccccc1)c1ccccc1)Oc1c(Cl)cc(Cl)cc1Cl)n1cnc2ccccc21 | – | > 100 µM (inactive) | 33.9 µM (inactive) | 84.1 µM (inactive) | – | 32.5 µM (inactive) | > 100 µM (inactive) | 50.7 µM (inactive) | > 100 µM (inactive) | 32.7 µM (inactive) | > 100 µM (inactive) | 43.8 | > 100 µM (inactive) | > 100 µM (inactive) | > 100 µM (inactive) | > 100 µM (inactive) | 27.5 µM (inactive) | 18.1 µM (inactive) | 44.6 µM (inactive) | 59.6 µM (inactive)
Cn1c(=O)[nH]n(-c2ccc3ccccc3c2)c1=O | > 100 µM (inactive) | > 100 µM (inactive) | – | > 100 µM (inactive) | > 100 µM (inactive) | > 100 µM (inactive) | > 100 µM (inactive) | > 100 µM (inactive) | > 100 µM (inactive) | > 100 µM (inactive) | > 100 µM (inactive) | > 100 | > 100 µM (inactive) | > 100 µM (inactive) | > 100 µM (inactive) | > 100 µM (inactive) | > 100 µM (inactive) | – | > 100 µM (inactive) | > 100 µM (inactive)
C=C1CC/C=C(/C(=O)O)CC[C@H]2[C@@H]1CC2(C)C | > 100 µM (inactive) | > 100 µM (inactive) | – | > 100 µM (inactive) | > 100 µM (inactive) | > 100 µM (inactive) | > 100 µM (inactive) | > 100 µM (inactive) | > 100 µM (inactive) | > 100 µM (inactive) | > 100 µM (inactive) | > 100 | > 100 µM (inactive) | > 100 µM (inactive) | > 100 µM (inactive) | > 100 µM (inactive) | > 100 µM (inactive) | > 100 µM (inactive) | > 100 µM (inactive) | 70 µM (inactive)
CCOC(=O)CCC(NC(=O)c1ccc(Nc2nc3cc(C(F)(F)F)ccc3nc2-c2ccccc2)cc1)C(=O)OCC (centres undefined) | > 100 µM (inactive) | 33.4 µM (inactive) | 13.2 µM (inactive) | – | 20.5 µM (inactive) | > 100 µM (inactive) | 26.5 µM (inactive) | 20.2 µM (inactive) | 19.7 µM (inactive) | 36.1 µM (inactive) | 24.4 µM (inactive) | 24.7 | > 100 µM (inactive) | 21.9 µM (inactive) | 29.6 µM (inactive) | 24.5 µM (inactive) | > 100 µM (inactive) | 16.9 µM (inactive) | 24.7 µM (inactive) | 17.7 µM (inactive)
NC(Cc1ccc(S(=O)(=O)O)cc1)C(=O)NC(CCCCNC(=O)NCCCCC(NC(=O)C(N)Cc1ccc(S(=O)(=O)O)cc1)C(=O)NC(Cc1ccc(S(=O)(=O)O)cc1)C(=O)O)C(=O)NC(Cc1ccc(S(=O)(=O)O)cc1)C(=O)O (centres undefined) | > 100 µM (inactive) | > 100 µM (inactive) | – | > 100 µM (inactive) | > 100 µM (inactive) | > 100 µM (inactive) | > 100 µM (inactive) | > 100 µM (inactive) | > 100 µM (inactive) | > 100 µM (inactive) | > 100 µM (inactive) | > 100 | > 100 µM (inactive) | > 100 µM (inactive) | > 100 µM (inactive) | > 100 µM (inactive) | > 100 µM (inactive) | > 100 µM (inactive) | > 100 µM (inactive) | –
O=C(O)Cn1ccc(=O)c2ccc([N+](=O)[O-])cc21 | > 100 µM (inactive) | > 100 µM (inactive) | > 100 µM (inactive) | > 100 µM (inactive) | > 100 µM (inactive) | > 100 µM (inactive) | > 100 µM (inactive) | – | > 100 µM (inactive) | > 100 µM (inactive) | > 100 µM (inactive) | > 100 | > 100 µM (inactive) | – | > 100 µM (inactive) | > 100 µM (inactive) | > 100 µM (inactive) | > 100 µM (inactive) | – | –
OC[C@H]1N[C@H](CO)[C@@H](O)[C@H]1O | > 100 µM (inactive) | > 100 µM (inactive) | > 100 µM (inactive) | > 100 µM (inactive) | > 100 µM (inactive) | – | > 100 µM (inactive) | > 100 µM (inactive) | > 100 µM (inactive) | > 100 µM (inactive) | – | > 100 | > 100 µM (inactive) | – | > 100 µM (inactive) | > 100 µM (inactive) | > 100 µM (inactive) | > 100 µM (inactive) | > 100 µM (inactive) | –
COc1cc2c(cc1OC)C(=O)/C(=C/c1cc(C)cc(C)c1)C2 | 0.184 µM (active) | < 0.0301 µM (active) | – | 0.0451 µM (active) | – | 0.0324 µM (active) | 40.7 µM (inactive) | 1.29 µM (inactive) | 0.538 µM (active) | < 0.0244 µM (active) | 0.06 µM (active) | 0.0296 | 0.0713 µM (active) | 19.8 µM (inactive) | 0.0982 µM (active) | 0.198 µM (active) | 0.0667 µM (active) | 0.504 µM (active) | 0.129 µM (active) | 3.29 µM (inactive)

Reference: ChEMBL document CHEMBL1201862, “PubChem BioAssay data set” (2004)
